Source: ChEMBL document CHEMBL1145987, “Structural determinants of selective thyromimetics” (J Med Chem, 2003)

Tests used:
[1] = target: T1, Thyroid hormone receptor beta (Homo sapiens, UniProt P10828); test: Binding affinity of compound was determined against thyroid hormone receptor beta 1
T1 sequence (P10828 whole entry): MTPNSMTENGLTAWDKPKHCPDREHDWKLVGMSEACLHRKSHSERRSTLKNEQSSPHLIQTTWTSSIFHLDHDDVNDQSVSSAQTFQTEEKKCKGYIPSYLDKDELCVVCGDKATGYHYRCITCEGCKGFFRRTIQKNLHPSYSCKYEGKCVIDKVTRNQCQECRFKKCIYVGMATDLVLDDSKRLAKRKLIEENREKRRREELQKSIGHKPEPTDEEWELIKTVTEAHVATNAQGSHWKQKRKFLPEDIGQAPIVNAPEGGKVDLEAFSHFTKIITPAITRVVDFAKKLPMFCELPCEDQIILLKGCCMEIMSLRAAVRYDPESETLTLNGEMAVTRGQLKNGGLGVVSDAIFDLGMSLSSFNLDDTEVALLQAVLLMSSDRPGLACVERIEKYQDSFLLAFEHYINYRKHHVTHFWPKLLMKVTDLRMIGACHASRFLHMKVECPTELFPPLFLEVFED

[2] = target: T2, Thyroid hormone receptor alpha (Homo sapiens, UniProt P10827); test: Binding affinity of compound was determined against Thyroid hormone receptor alpha1
T2 sequence (P10827 whole entry): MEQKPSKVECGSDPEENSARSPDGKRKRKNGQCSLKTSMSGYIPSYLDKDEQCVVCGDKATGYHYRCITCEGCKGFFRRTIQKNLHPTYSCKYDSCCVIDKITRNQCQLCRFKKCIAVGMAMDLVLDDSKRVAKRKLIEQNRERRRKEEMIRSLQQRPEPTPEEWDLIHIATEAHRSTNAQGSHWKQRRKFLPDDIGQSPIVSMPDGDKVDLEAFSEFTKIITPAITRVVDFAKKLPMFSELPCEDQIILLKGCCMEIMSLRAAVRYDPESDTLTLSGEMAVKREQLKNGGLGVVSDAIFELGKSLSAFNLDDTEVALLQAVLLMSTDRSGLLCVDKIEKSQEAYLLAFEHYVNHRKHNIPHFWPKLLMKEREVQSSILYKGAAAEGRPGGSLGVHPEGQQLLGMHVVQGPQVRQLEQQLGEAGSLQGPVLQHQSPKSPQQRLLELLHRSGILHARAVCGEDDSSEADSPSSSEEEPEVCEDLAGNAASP

SMILES | Kd [1] [nM] | Kd [2] [nM]
Cc1cc(OCC(=O)O)cc(C)c1Oc1ccc(O)c(C(C)C)c1 | 0.36 | 2.4
Cc1cc(C[C@H](N)C(=O)O)cc(C)c1Oc1ccc(O)c(C(C)C)c1 | 6.2 | 8.5
Cc1cc(C[C@H](N)C(=O)O)cc(C)c1Cc1ccc(O)c(C(C)C)c1 | 1.26 | 2.02
Cc1cc(CCC(=O)O)cc(C)c1Cc1ccc(O)c(C(C)C)c1 | 0.22 | 0.69
